According to patent publication US7208154B2, “Methods and compositions for the treatment of MHC-associated conditions” (Regents of the University of Michigan, priority 2002, dated 2007):
Each block holds one molecule with its values, some of them ahead of it. No end group written: not given here.

Key:
mouse cells = assay: cAMP-mediated DNA repair induction in mouse cells (data not shown); type: cell-based
Protocol: (§1) To directly examine that possibility, cells were incubated overnight with synthetic peptides corresponding to the region contained within amino acids 65–79 and their ability to mount DNA repair activity in response to cAMP-elevating agents was determined. M1 cells were preincubated overnight with 50 μg/ml of synthetic peptides corresponding to the region surrounding the third allelic hypervariable region (aa 65–79) of each of the following DRβ chains: *0401 (65–79*0401) [SEQ ID NO: 5], *0402 (65–79*0402) [SEQ ID NO: 7], *0403 (65–79*0403) [SEQ ID NO: 9] or *0404(65–79*0404) [SEQ ID NO: 10]. At the end of the preincubation, cells were collected, washed and 2CA-induced DNA repair was determined as above. Table 3 (above) lists the different third allelic hypervariable region peptides used in the entire study disclosed here.

[1] = molecular target: T1, purified recombinant calreticulin (Homo sapiens, UniProt P27797); assay: Surface plasmon resonance, peptides immobilized on CM5 chip, calreticulin in flow phase; type: binding; settings: peptide immobilized on Biacore sensor chip CM5
T1 sequence (P27797 18-417): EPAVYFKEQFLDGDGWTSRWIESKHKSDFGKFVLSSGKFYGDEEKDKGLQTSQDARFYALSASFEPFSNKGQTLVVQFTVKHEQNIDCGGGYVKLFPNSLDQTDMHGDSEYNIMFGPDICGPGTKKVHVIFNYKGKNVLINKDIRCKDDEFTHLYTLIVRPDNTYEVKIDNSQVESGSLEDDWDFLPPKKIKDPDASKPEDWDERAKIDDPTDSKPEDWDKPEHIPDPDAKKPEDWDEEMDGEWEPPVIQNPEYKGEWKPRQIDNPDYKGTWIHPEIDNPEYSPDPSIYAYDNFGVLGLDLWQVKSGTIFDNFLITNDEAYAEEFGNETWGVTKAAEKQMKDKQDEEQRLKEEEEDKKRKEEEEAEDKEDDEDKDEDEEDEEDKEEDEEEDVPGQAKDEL
Description: To determine whether 65–78*0404 [SEQ ID NO: 28]-conjugated peptides bind these proteins directly, purified recombinant products were used. […] Shared epitope-containing peptides, 65–79*0401-[SEQ ID NO: 5] and 65–79*0404-[SEQ ID NO: 10], as well as a control peptide 65–79*0402-[SEQ ID NO: 7] were immobilized on different channels in a Biacore® sensor chip CM5 and purified recombinant calreticulin was applied in the flow phase.

[2] = test system: human fibroblastoid line M1 cells; settings: for Inhibition of cAMP-mediated (2CA-induced) DNA repair induction: M1 cells preincubated overnight with 50 μg/ml soluble peptide
Description: To further determine the signaling pathways involved in DNA repair induction, the inventors used the Trevigen CometAssay™ kit (Cat. No. 4250-50-K). The CometAssay is a single-cell gel electrophoresis method that can measure a variety of types of DNA damage, and repair of damage, in individual cells. The assay is based on the alkaline lysis of labile DNA at sites of damage. The unwound, relaxed DNA is able to migrate out of the cell during electrophoresis and can be visualized by SYBR Green staining.
(§2) To quantify DNA damage, cells were collected and three parallel samples were processed (a negative control, a DNA damage control (H2O2) and a sample subjected to H2O2 following exposure to various modulators of the cAMP signaling pathway). Cells are then washed in PBS. The washed cells are combined with molten low-melting agarose (Trevigen Cat. No. 4250-50-02) and transferred to a CometSlide™ (Trevigen Cat. No. 4250-100-03). The slides are immersed in lysis buffer for 30 min, on ice, in the dark. The slides are then treated with alkali buffer for 20 to 60 min at room temperature in the dark. The slides are then electrophoresed in buffer for 10 min at 20 volts, then fixed in methanol and ethanol. The slides are then stained with SYBR green (Trevigen Cat. No. 4250-50-05) solution and fluorescently imaged with a Diagnostic Instruments digitized camera, mounted on a Nikon Eclipse E400 microscope. Scion Image software is used to quantitate the comet tail intensity. Each data point is derived from tail fluorescent intensity determination in 50–100 individual cells. Data is presented as % DNA repair (the percent decrement in tail fluorescence intensity in agonist or antagonist-treated cells, relative to the intensity recorded in cells treated with H2O2 only)±SEM. (R.U.s)
as §1
A modified method as described previously by Auger et al. [Nature Med 2:306–310 1996] was used. Briefly, cyanogen bromide activated Speharose 4B (1.5 ml) was washed with 1 mM HCl and incubated with peptides in 0.1 M NaHCO3 and 0.5 M NaCl (pH 8) buffer overnight at 4° C. For each peptide, 5 mg was used per milliliter of Sepharose. Free Sepharose groups were blocked with 0.2 M glycine (pH 8) for 2 hours at room temperature. Columns were washed at 4° C. with the following buffers: 0.1 M NaHCO3, 0.5 M NaCl (pH 8) buffer, then 0.5 M CH3COONa (pH 4) buffer and finally PBS at pH 7.5. M1 cells were plated at a density of 0.5×10^6 cells per well (6 well plate) in 10% FBS DMEM medium until 70–80% confluence. Prior to incubation with peptides, cultures were changed to serum-free DMEM medium, then evenly overlaid with 50 μg bead conjugated peptides, and incubated for the indicated period. Soluble peptides were added overnight to M1 cells at a concentration of 50 μg/ml.

M1 cells = assay: cGMP level (enzyme immunoassay) in M1 cells; type: cell-based, human; settings: M1 cells exposed to 50 μg/ml soluble peptide
Protocol: cGMP was determined using an Amersham Pharmacia Biotech cGMP enzymeimmunoassay (EIA) system (Code RPN 226). The reagents (lysis reagents, standards, antibody, cGMP conjugate and wash buffer) are all prepared according to the manufacturer's instructions. Briefly, samples are acetylated with acetylation reagent (acetic anhydride in triethylamine) and then incubated with the antibody reagent and lysis buffer according to the manufacturer's instructions. The cGMP conjugate is then added and the microtiter plate is incubated according to the manufacturer's instructions. The wells are aspirated and washed, enzyme substrate is added and incubated, and the plate can be read at 630 nm or 450 nm (depending on the length of incubation and how the reaction was terminated). Controls are carried out as recommended by the manufacturer, and the results are calculated according to the manufacturer.
D.) cGMP levels in M1 cells were determined as described above using an enzyme immunoassay kit (Pharmacia) at different time points following exposure to 50 μg/ml of soluble 65–78*0401 [SEQ ID NO: 6] or 65–78*0402 [SEQ ID NO: 8] peptides.

[3] = test system: hybrid neuroblastoma-glioma NG108–15 cell line; assay: Neuroprotection in acutely stressed NG108–15 cells; type: cell-based
Protocol: In order to assess whether shared epitope-containing peptides exert a neuroprotective effect, preliminary experiments were carried out with the hybrid neuroblastoma-glioma NG108–15 cell line. Cells (10^5/ml) were first cultured overnight at near-confluence in 24-well plates in DMEM medium supplemented with 1% fetal calf serum (FCS). Under these conditions, NG108–15 cells show a flat, multipolar morphology and neurite formation. After 20 hours, cells were stressed acutely in serum-free medium (by aspiration of the medium and replacement with serum-free DMEM) with 50 μg/ml of peptides and evaluated morphologically at different time points thereafter. […] Morphological differences between cultures treated with different peptides could be observed as early as 5–6 hrs after treatment. The photographs shown were taken at the 24 hr time point. In another experiment (FIG. 12C), NG108–15 cells were cultured at low cell density (2×10^4/ml) in 1% FCS-containing DMEM medium overnight. The next day cells were subjected to acute stress in serum-free and low glucose (RPMI1640) medium (after aspiration of the 1% FCS DMEM) in the presence of 50 μg/ml of either 65–78*0401 [SEQ ID NO: 6] or 65–78*0402 [SEQ ID NO: 8] peptides. After 72 hours, cells were fixed with 1% formaldehyde and inspected microscopically. Mean±SEM was determined by averaging cell counts in eight randomly-selected microscopic fields in 200× magnification. Neurite-positive cells were defined as cells with one or more projections extending at least twice as long as the cell diameter. […] (FIG. 12C). The calculated number of neurite-positive cells was over 6-fold higher in shared epitope-containing peptide-cultured cells. When cultured in the presence of lysophosphatidic acid or high concentrations of serum, neuronal cells undergo neurite retraction (130). […] Thus, it is concluded that shared epitope-containing peptides may exert neuroprotective effects.

calreticulin [4] = molecular target: T2, calreticulin (Homo sapiens, UniProt P27797); assay: Blocking of shared epitope peptide-triggered signaling (cAMP-inhibitory effect, genoprotection) in M1 cells; type: cell-based; parameters: endogenous in cells; host or cells: M1 human fibroblastoid cells; settings: M1 cells pre-incubated or transfected
T2 sequence (P27797 18-417): T1 sequence (P27797 18-417)
Protocol: Finally, in order to determine whether these neuroprotective peptides transduce their signaling through calreticulin, two complementing protocols were executed: i) Inhibition of peptide-calreticulin interaction using anti-calreticulin antibodies, or ii) blocking calreticulin expression with antisense oligonucleotides (as shown in FIG. 13C and FIG. 13D).
(§3) M1 cells were cultured in 6-well plate to 60–70% confluency. M1 cells were treated by 0.2 μM antisense oligonucleotide for 24 to 48 hr, using Lipofectin as a carrier. Calreticulin expression levels were determined by Western-blot and flow cytometry, using anti-calreticulin antibodies. Polyclonal rabbit anti-human calreticulin antibodies were obtained from ABR, Golden, CO.

calreticulin [5] = assay: Calreticulin cell surface expression in M1 cells (Western-blot, flow cytometry); type: cell-based, human; settings: 0.2 μM oligonucleotide, 24 to 48 hr, Lipofectin
Protocol: as §3

[6] = test system: Total cellular protein extracts; assay: Peptide affinity chromatography of total cellular protein extracts; type: binding; settings: total cellular protein extracts loaded
Description: Total cellular protein extracts were loaded onto columns of Sepharose beads, conjugated with either shared epitope-containing peptide 65–78*0404 [SEQ ID NO: 28] or the control peptide 65–78*0402 [SEQ ID NO: 8]. Bound proteins were eluted at low pH. […] 11 sequenced bands matched intracellular proteins, and only two sequences matched previously identified cell surface proteins: heat shock protein 60 (HSP60) and calreticulin. Both calreticulin and HSP60 are chaperones, with strong tendency to form hetero-complexes.

calreticulin [7] = molecular target: T2, calreticulin; assay: Peptide affinity column binding of purified recombinant calreticulin; settings: immunoblot of eluate
[8] = molecular target: T3, human A2B adenosine receptor (Homo sapiens, UniProt P29275); assay: Comet assay DNA repair in HEK293/A2b transfectants; type: cell-based; settings: 20 min pretreatment, various doses
T3 construct: expressed in transfected cells; provided by Joel Linden
T3 sequence (P29275 1-332): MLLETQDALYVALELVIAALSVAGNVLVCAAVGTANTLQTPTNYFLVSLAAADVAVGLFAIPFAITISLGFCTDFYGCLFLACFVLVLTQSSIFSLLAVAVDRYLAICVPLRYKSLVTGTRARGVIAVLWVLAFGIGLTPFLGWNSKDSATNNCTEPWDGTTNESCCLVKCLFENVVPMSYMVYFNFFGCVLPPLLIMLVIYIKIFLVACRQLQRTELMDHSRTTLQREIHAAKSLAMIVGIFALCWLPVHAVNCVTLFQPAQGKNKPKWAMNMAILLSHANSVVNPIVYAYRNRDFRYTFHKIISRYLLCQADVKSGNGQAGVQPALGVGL
Protocol: as §2
(§4) Human embryonic kidney 293 cells (HEK 293) transfected with adenosine receptors were provided by Joel Linden. […]

[9] = molecular target: T4, human A2A adenosine receptor (Homo sapiens, UniProt P29274); assay: Comet assay DNA repair in HEK293/A2a transfectants; type: cell-based; settings: 20 min pretreatment, various doses
T4 construct: expressed in transfected cells; provided by Joel Linden
Protocol: as §2, §4

T4 sequence (P29274 whole entry): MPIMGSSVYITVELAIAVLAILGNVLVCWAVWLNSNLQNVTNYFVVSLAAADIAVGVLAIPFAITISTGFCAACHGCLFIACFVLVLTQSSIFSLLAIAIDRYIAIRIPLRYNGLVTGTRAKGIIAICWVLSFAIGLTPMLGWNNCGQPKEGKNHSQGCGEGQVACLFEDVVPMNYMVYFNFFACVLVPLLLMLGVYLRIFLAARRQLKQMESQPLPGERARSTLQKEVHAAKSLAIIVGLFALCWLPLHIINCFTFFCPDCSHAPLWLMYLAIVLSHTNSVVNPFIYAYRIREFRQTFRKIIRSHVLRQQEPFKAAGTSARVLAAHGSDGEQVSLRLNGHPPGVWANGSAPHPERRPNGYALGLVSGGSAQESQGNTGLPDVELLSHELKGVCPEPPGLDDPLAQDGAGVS

Molecule: KDLLEQKRAAVDTY-NH2 [65–78*0401]
- cGMP levels (M1 cells): triggered increased cGMP levels
- IC50 [2]: ~0.25 µM
- Inhibition of neurite retraction effect of 10% FCS ([3]; data not shown): inhibited the neurite retraction effect
- Survival rate versus control peptide 65–78*0402 ([3]; low density, serum-free low glucose medium, 50 μg/ml, 72 hours, p<0.0005): significantly higher survival rate
- Percentage of neurite-positive cells versus control peptide 65–78*0402 ([3]; low density, serum-free low glucose medium, 50 μg/ml, 72 hours, p<0.001): higher percentage of neurite-positive cells
- Cell morphology after acute serum-free stress ([3]; near-confluent NG108–15, 50 μg/ml peptide, 24 hr): greater preservation of the multipolar flat cell morphology with neurites
- Calculated number of neurite-positive cells, fold higher than control peptide ([3]; serum-free low glucose medium, 50 μg/ml, 72 hours): over 6 fold

Molecule: 5′-GGATAGCAGCATGGCGGGCCG-3′ (listed as DNA, chemistry not given here) [calreticulin antisense oligonucleotides, calreticulin antisense oligonucleotide synthesized by Operon]
- Block of shared epitope peptide-triggered signaling / inhibitory effect on genoprotection (calreticulin [4]): blocked peptide-triggered signaling
- Inhibition of calreticulin cell surface expression (calreticulin [5]): inhibited cell surface expression

Molecule: Nc1nc(Cl)nc2c1ncn2[C@@H]1O[C@H](CO)[C@@H](O)[C@H]1O [2CA, 2-chloroadenosine]
- 2CA-induced DNA repair signal transduced [8]: transduced the signal
- 2CA-induced DNA repair signal transduced [9]: transduced the signal
- DNA repair triggered ([2]; M1 cells stimulated 20 min with various concentrations before 100 μM H2O2): triggered in all cases DNA repair

Further lines, with some results ahead:

- Calreticulin binding compared to control peptide 65–79*0402 [1]: markedly higher calreticulin binding
Molecule: KDLLEQKRAAVDTYC [65–79*0401]
- Inhibition of cAMP-mediated DNA repair induction (mouse cells): inhibited cAMP-mediated DNA repair induction
- Inhibition of cAMP-mediated (2CA-induced) DNA repair induction [2]: inhibited cAMP-mediated DNA repair induction

- Calreticulin binding compared to control peptide 65–79*0402 [1]: markedly higher calreticulin binding
Molecule: KDLLEQRRAAVDTYC [65–79*0404]
- Inhibition of cAMP-mediated DNA repair induction (mouse cells): inhibited cAMP-mediated DNA repair induction
- Inhibition of cAMP-mediated (2CA-induced) DNA repair induction [2]: inhibited cAMP-mediated DNA repair induction

- Protein binding: distinct bands in low pH eluates of peptide-conjugated Sepharose column [6]: ~20
- Binding of recombinant human calreticulin to peptide affinity column (calreticulin [7]): specifically bound
Molecule: KDLLEQRRAAVDTY [65–78*0404, synthetic peptide corresponding to amino acids 65–78 of the β chain encoded by the HLA-DRB*0404 allele]
